# From ChEMBL document CHEMBL1201862, “PubChem BioAssay data set” (2004)
# The source made the active and inactive calls.
# Experiments:
# [1] = Single fluorophore orthopox expression reporter, late gene expression Measured in Cell-Based and Microorganism Combination System Using Plate Reader - 2142-08_Inhibitor_Dose_DryPowder_Activity.; type: functional
# [2] = inhibitors of orthopox intermediate gene expression, dose response, cell-based, single fluorophore reporter, dry powder (AID 1117271); type: functional
# [3] = lung carcinoma cell viability loss – CellTiter-Glo luminescence, dry powder, set 17, dose response (AID 1117284); type: functional, cell-based; details: A549
# [4] = Orthopox viral replication plaque formation Measured in Cell-Based and Microorganism Combination System Using Imaging - 2142-05_Inhibitor_Dose_DryPowder_Activity.; type: functional
# [5] = COV362 cell viability loss – plate reader, dry powder, SA12, cytotoxicity control for PAX8 inhibitor project, dose response (AID 743144); type: functional, cell-based
# [6] = OVCAR4 cell viability loss – plate reader, dry powder, SA11, cytotoxicity control for PAX8 inhibitor project, dose response (AID 743150); type: functional, cell-based; details: OVCAR-4
# [7] = target: Paired box protein Pax-8 (Homo sapiens, UniProt Q06710); assay: PAX8 transcriptional activity inhibition in RMG-I – RMG-I cells, luciferase, cherry-pick, dose response (AID 687027); type: functional, cell-based;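 also: luciferase reporter driven by Pax8 target thyroperoxidase promoter measured by SteadyGlo luminescence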
# Chain of Paired box protein Pax-8 (Q06710 whole entry): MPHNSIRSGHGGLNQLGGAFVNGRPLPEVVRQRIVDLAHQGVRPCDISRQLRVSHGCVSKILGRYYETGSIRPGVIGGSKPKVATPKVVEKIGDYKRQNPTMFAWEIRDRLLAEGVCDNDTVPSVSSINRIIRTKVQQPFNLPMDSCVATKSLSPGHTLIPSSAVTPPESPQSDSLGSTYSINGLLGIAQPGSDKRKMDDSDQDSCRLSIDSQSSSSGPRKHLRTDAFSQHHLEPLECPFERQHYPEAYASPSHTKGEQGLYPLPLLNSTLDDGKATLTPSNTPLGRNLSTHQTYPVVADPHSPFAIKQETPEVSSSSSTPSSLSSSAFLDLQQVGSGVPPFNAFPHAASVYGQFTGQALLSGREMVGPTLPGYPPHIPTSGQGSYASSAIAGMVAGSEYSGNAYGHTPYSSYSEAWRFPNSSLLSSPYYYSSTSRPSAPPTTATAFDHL
# [8] = OV-90 cell viability loss – plate reader, dry powder, SA8, PAX8 inhibitor project, dose response (AID 743149); type: functional, cell-based
# [9] = IGROV1 cell killing – plate reader, dry powder samples, PAX8 inhibitor project, dose response (AID 743043); type: functional, cell-based; details: IGROV-1
# [10] = OVCAR-3 cell viability loss – plate reader, dry powder samples, PAX8 inhibitor project, dose response (AID 743044); type: functional, cell-based
# [11] = toxicity toward immortalized ovarian surface epithelium – cell-based, plate reader, dry powder samples, cytotoxicity control for PAX8 inhibitor project, dose response (AID 743045); type: functional
# [12] = PAX5 cellular inhibition readout – cell-based, plate reader, dry powder samples, selectivity assay for PAX8 inhibitor project, dose response (AID 743047); type: functional;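 also: HEK293 cells carrying a Pax5 driven CD19 promoter luciferase reporter; potency of inhibitors that lower reporter luminescence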
# [13] = inhibitors acting on PAX2 in cells – cell-based, plate reader, dry powder samples, selectivity assay for PAX8 inhibitor project, dose response (AID 743048); type: functional;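 also: HEK293 cells carrying a WT1 promoter luciferase reporter driven by expressed Pax2; potency is for inhibition of Pax2 driven reporter signal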
# [14] = COV434 cell viability loss – plate reader, dry powder, SA7, cytotoxicity control for PAX8 inhibitor project, dose response (AID 743145); type: functional, cell-based
# [15] = general cell-killing toxicity readout – plate reader, dry powder samples, cytotoxicity control for PAX8 inhibitor project, dose response (AID 743021); type: functional, cell-based
# [16] = target: RNA-editing ligase 1, mitochondrial (Trypanosoma brucei brucei, UniProt P86926); assay: inhibition of trypanosome RNA editing ligase – biochemical, fluorescence, Trypanosoma brucei, dose response (AID 1117295); type: functional
# Chain of RNA-editing ligase 1, mitochondrial (P86926 whole entry): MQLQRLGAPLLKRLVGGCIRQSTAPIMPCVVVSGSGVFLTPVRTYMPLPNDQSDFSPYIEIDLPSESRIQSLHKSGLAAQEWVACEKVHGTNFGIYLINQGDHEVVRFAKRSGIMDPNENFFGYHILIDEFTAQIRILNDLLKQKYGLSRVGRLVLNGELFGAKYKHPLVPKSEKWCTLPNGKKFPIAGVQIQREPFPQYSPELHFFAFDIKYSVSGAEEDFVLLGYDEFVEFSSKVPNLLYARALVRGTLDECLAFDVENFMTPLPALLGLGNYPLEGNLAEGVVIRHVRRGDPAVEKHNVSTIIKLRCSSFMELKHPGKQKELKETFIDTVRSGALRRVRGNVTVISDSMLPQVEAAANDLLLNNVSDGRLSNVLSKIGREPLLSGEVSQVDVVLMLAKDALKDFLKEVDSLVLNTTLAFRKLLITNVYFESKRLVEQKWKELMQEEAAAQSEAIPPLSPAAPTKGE
# [17] = system: A549; assay: viability loss in A549 cells – cell-based, plate reader, cherry-pick samples, cytotoxicity control, dose response (AID 687028); type: functional; details: Homo sapiens
# [18] = HEK293 Cytotoxicity Assay Measured in Cell-Based System Using Plate Reader - 7071-01_Inhibitor_Dose_CherryPick_Activity_Set2.; type: functional
# [19] = system: HEK293; assay: viability loss in HEK293T cells – cell-based, ATP luminescence, cherry-pick samples, cytotoxicity control, dose response (AID 687005); type: functional; details: Homo sapiens;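 also: cells exposed to compound for 48 hours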
# [20] = target: Kallikrein-7 (Homo sapiens, UniProt P49862); assay: Fluorescence Intensity-based biochemical primary high throughput dose response assay to identify activators of kallikrein-7 (K7) zymogen.
# Chain of Kallikrein-7 (P49862 whole entry): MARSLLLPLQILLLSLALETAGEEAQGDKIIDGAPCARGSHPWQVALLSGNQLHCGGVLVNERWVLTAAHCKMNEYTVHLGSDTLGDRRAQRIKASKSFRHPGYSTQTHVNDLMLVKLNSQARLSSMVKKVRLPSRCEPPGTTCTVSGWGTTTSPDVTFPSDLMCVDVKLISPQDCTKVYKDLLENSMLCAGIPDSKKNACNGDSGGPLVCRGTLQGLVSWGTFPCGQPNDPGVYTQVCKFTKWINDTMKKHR
# [21] = MITF: Counter assay: A375 proliferation Measured in Cell-Based System Using Plate Reader - 2084-03_Inhibitor_Dose_DryPowder_Activity_Set8.; type: functional; details: A-375
# [22] = inhibitors of TRPM1-promoter reporter in SK-MEL-5 – cell-based, luciferase, dry powder, set 8, MITF inhibitor project, dose response (AID 624430); type: functional
# [23] = MITF Orthogonal Assay: SK-MEL-5 CTG Assay Measured in Cell-Based System Using Plate Reader - 2084-02_Inhibitor_Dose_DryPowder_Activity_Set7.; type: functional
# [24] = target: Arf-GAP with SH3 domain, ANK repeat and PH domain-containing protein 1 (Homo sapiens, UniProt Q9ULH1); type: functional;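 also: biochemical fluorescence polarization dose–response screen measuring inhibition of ASAP1; ASAP1 GAP domain stimulating GTP hydrolysis by truncated human ARF1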
# Chain of Arf-GAP with SH3 domain, ANK repeat and PH domain-containing protein 1 (Q9ULH1 whole entry, the tested form may be a part): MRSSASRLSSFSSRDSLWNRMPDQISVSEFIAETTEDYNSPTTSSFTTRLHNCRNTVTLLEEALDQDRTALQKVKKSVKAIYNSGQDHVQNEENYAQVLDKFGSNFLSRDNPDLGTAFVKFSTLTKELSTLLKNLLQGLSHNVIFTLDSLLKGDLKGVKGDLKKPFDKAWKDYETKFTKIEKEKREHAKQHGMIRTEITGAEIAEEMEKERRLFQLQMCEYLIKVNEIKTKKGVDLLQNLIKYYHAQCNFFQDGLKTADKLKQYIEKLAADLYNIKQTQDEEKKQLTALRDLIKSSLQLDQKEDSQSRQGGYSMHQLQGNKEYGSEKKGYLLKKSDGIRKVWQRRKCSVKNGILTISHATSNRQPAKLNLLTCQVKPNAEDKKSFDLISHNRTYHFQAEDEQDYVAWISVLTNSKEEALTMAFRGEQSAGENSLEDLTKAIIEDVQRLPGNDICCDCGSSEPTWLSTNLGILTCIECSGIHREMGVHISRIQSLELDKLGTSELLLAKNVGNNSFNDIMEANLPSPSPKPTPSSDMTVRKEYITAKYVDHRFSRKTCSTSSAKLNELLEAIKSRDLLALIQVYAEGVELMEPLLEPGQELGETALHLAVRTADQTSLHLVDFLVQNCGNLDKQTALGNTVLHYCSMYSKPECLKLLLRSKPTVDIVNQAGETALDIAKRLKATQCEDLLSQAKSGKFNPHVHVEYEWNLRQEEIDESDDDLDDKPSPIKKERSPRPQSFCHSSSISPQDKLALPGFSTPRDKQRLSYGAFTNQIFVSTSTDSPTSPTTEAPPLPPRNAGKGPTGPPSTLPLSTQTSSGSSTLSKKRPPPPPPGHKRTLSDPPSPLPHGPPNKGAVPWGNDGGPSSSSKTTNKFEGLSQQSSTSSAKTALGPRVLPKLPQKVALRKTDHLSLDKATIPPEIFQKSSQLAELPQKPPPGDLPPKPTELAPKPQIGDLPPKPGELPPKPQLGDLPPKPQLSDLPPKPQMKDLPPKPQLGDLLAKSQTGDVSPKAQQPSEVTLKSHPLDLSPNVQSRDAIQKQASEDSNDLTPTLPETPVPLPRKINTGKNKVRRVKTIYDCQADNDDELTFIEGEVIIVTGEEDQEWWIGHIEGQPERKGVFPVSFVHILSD
# [25] = target: ADP-ribosylation factor GTPase-activating protein 1 (Rattus norvegicus, UniProt Q62848); assay: Fluorescence polarization-based biochemical high throughput dose response screening assay to identify inhibitors of ADP-ribosylation factor GTPase activating protein 1 (ARFGAP1).; type: functional
# Chain of ADP-ribosylation factor GTPase-activating protein 1 (Q62848 whole entry): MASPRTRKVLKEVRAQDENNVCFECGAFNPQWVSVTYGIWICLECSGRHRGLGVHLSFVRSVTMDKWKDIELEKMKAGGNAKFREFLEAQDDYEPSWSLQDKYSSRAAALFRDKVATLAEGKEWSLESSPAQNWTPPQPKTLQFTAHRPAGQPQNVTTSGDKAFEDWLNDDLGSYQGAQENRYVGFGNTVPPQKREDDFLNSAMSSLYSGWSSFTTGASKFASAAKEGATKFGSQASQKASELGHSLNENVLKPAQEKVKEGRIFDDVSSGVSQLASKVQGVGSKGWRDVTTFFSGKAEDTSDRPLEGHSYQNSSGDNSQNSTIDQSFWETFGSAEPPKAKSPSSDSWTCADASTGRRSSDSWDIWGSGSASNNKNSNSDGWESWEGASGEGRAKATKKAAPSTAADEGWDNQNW
# [26] = viability loss in HEK293 cells – cell-based, plate reader, cherry-picked samples, cytotoxicity control, dose response (AID 743446); type: functional
# [27] = viability loss in HepG2 hepatoma cells – cell-based, ATP luminescence, cherry-pick, activator set 2, cytotoxicity control, dose response (AID 1053143); type: functional
# [28] = blockade of melanocortin 4 receptor signaling – cell-based, plate reader, cherry pick, counter-screen for LGR2 antagonist project, dose response (AID 743444); type: functional;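 also: transfected HEK 293 cells stimulated with alpha-MSH peptide; potency of inhibitors of the alpha-MSH evoked signal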
# [29] = toxicity toward HepG2 liver cells – cell-based, plate reader, cherry-pick, antagonist series, cytotoxicity control, dose response (AID 743416); type: functional
# [30] = A549 cell cytotoxicity, dose response, cytotoxicity control, plate reader, cherry-pick, antagonist series (AID 743412); type: functional, cell-based
# [31] = blockers of bursicon-stimulated LGR2 cAMP reporter – cell-based, HEK293, CRE-luciferase reporter, cherry pick, set 2, dose response (AID 743343); type: functional;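 also: transfected cells were stimulated with diluted bursicon conditioned medium after compound addition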
# [32] = A Cell-Based Confirmatory Screen for Compounds that Inhibit VEEV, TC-83 (7).; type: functional
compound,measurement,setting,value
Cc1ccc(-c2ccc(CN(C)C[C@@H]3Oc4cc(C#C[C@@H](C)O)ccc4S(=O)(=O)N([C@@H](C)CO)C[C@@H]3C)cc2)cc1,AC50,[1],1.13 µM (active)
same,AC50,[2],1.95 µM (active)
same,AC50,[3],> 52 µM (inactive)
same,AC50,[4],1.76 µM (active)
Cc1ccccc1CNC(=O)C1CCCN(c2nnc(C)c3c(C)n(-c4ccccc4)nc23)C1 (configuration not stated),AC50,[5],42.3 µM (active)
same,AC50,[6],61.3 µM (active)
same,AC50,[7],5.95 µM (active)
same,AC50,[8],9.9 µM (active)
same,AC50,[9],32.4 µM (active)
same,AC50,[10],42.8 µM (active)
same,AC50,[11],91.9 µM (active)
same,AC50,[12],24 µM (active)
same,AC50,[13],4.18 µM (active)
same,AC50,[14],98.3 µM (active)
same,AC50,[15],< 29.5 µM (active)
COC(=O)C1=C(C)N(Cc2ccc(C(F)(F)F)cc2)C(NCc2ccc(OC)cc2)=NC1c1ccccc1C(F)(F)F (configuration not stated),IC50,[16],> 96.6 µM (inactive)
C[C@@H]1CCCCO[C@H](CN(C)C(=O)Nc2ccc(C(F)(F)F)cc2)[C@H](C)CN([C@@H](C)CO)C(=O)c2cc(NS(=O)(=O)c3ccc(F)cc3)ccc2O1,AC50,[17],28.1 µM (active)
O=C(c1cccc(Br)c1)N1CCN(c2ccccn2)CC1,AC50,[18],> 52 µM (inactive)
same,AC50,[19],> 52 µM (inactive)
COC(=O)c1ccc(N2C(c3cc(OC)cc(OC)c3)=Cc3ccc(-c4ccc(C(N)=O)cc4)cc3C2CC(=O)C2CC2)cc1 (configuration not stated),EC50,[20],> 7.72 µM (active)
CN1CCN(C2=C(Nc3ccc(Cl)c(Cl)c3)C(=O)c3ccccc3C2=O)CC1,AC50,[21],27.9 µM (active)
same,AC50,[22],6.64 µM (active)
same,AC50,[23],7.66 µM (active)
Cc1ccc2nc(SCC(=O)N3CCC(Cc4ccccc4)CC3)nc(=O)n2c1,IC50,[24],32.7 µM (inactive)
same,IC50,[25],26.9 µM (inactive)
O=C(Nc1nc2cc3c(cc2s1)OCCO3)c1cccs1,AC50,[26],> 52 µM (inactive)
same,AC50,[27],26 µM (active)
same,AC50,[28],3.84 µM (active)
same,AC50,[29],> 52 µM (inactive)
same,AC50,[30],28 µM (active)
same,AC50,[31],2.01 µM (active)
O=c1c2cc([N+](=O)[O-])ccc2nc(CN2CCCNC2)n1-c1ccccc1,IC50,[32],1.13 µM (active)
